Data reported in publication PMC6941357, “An in vitro toolbox to accelerate anti-malarial drug discovery and development” (Malaria Journal, 2020).
Values after ≈ are worked out from the molar mass of the structure shown. Values joined by “and” are separate entries in the source; they are usually repeats but may differ in a detail not shown here. Identical values can stand only once.

How the values were obtained:
[1] = Solubility in biorelevant media; conditions: thermodynamic from solid
How it was run: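 LC–MS quantification of supernatants, after two centrifugations, in triplicate against calibration standards. Media: FaSSGF sampled at 1 h; FaSSIF-V2, FeSSIF-V2 and pH 7.4 PBS sampled at 5–6 h; all at 37 °C on an orbital mixer at 600 rpm.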

[2] = Solubility limited absorbable dose (SLAD) calculation with predicted human jejunal Peff; conditions: for solubility: FaSSIF; for An (absorption number): Peff × tres/R, minimum 1; for SLAD: Ssi × V (500 mL) × Mp; for Permeability classification: based on ref 80 and control compounds; for Predicted human Peff: from Caco-2 Papp via calibration plot
Text: Predicted Peff values were obtained from a calibration plot of literature Peff values vs measured Caco-2 Papp using either buffer or plasma as the transport medium (see Results section).

[3] = molecular target: T1, Albumax medium (lipid rich bovine serum albumin) (Bos taurus, UniProt P02769); test: Binding in Albumax medium via ultracentrifugation; assay type: in vitro ADME; conditions: bovine
T1 construct: purchased Gibco, Thermo Fisher Scientific
T1 sequence (P02769 25-607): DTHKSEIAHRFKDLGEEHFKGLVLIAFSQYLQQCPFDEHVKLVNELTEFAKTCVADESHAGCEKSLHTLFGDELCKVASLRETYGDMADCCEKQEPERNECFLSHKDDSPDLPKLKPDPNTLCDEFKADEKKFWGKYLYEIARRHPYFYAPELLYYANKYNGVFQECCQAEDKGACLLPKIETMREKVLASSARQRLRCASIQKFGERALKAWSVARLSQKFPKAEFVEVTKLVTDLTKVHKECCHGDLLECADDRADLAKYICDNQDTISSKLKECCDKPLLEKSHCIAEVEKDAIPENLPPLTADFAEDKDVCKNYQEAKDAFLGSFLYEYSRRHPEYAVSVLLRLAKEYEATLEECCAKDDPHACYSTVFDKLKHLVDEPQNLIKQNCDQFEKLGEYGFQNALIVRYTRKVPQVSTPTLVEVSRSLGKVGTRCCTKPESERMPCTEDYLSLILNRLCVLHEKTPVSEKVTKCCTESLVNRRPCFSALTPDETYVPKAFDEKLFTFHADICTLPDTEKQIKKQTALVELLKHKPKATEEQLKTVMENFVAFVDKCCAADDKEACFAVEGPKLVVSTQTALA
How it was run: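 Unbound fraction (fu) taken as protein-free supernate concentration over total concentration after ultracentrifuging compound-spiked Albumax at 37 °C (5% or 10% CO2, or air). Analysis used 1:1 mixing with the opposite blank matrix against a common pH 7.4 calibration; degradation judged by start versus end Ctotal.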

[4] = In vitro metabolism (metabolic stability) in human liver microsomes; conditions: human, pH 7.4, HLM CLint
How it was run: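 Intrinsic clearance (µL/min/mg protein) came from the first-order substrate-depletion rate in human liver microsomes, using only the initial log-linear phase where kinetics deviated. Samples were quenched at 2, 5, 15, 30 and 60 min and quantified by LC–MS. Unbound CLint was obtained by dividing by microsomal fu.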

CYP1A2 = molecular target: T2, CYP1A2 (Homo sapiens, UniProt P05177); test: Cytochrome P450 inhibition in human liver microsomes
T2 sequence (P05177 1-516): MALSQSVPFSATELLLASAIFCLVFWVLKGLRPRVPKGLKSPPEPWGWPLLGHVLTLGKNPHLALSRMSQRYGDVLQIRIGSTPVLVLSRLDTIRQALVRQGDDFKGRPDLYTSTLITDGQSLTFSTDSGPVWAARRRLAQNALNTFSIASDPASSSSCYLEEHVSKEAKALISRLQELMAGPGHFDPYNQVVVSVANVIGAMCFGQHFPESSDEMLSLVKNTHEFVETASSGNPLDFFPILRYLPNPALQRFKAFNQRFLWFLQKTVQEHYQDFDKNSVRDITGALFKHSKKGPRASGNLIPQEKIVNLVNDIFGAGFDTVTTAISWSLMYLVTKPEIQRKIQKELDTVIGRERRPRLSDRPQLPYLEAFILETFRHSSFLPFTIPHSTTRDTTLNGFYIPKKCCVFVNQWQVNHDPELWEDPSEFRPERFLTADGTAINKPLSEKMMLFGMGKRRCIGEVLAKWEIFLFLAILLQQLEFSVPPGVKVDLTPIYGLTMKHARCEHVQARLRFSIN
How it was run: (§1)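 Each compound is incubated with human liver microsomes and a probe substrate whose conversion is mediated by one CYP isoform. Reactions are then quenched with ice-cold acetonitrile, and the metabolite is determined by LC–MS.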

CYP2C19 = CYP2C19 (Homo sapiens, UniProt P33261); test: as above
CYP2C19, sequence (P33261 whole entry): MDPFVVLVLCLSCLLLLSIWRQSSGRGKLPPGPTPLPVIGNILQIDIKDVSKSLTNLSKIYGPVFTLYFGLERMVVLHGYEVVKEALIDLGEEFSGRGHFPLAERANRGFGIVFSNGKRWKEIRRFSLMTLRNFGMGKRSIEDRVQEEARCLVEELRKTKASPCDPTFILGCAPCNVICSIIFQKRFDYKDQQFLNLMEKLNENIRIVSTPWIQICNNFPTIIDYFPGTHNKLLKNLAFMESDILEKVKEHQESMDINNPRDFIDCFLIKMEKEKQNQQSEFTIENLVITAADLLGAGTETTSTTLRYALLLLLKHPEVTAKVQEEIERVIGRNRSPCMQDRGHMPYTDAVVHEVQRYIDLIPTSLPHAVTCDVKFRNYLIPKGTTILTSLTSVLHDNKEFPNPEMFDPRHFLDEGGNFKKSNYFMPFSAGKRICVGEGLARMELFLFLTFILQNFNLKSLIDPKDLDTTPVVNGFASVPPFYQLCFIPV
How it was run: as §1

CYP2C9 = CYP2C9 (Homo sapiens, UniProt P11712); test: as above
CYP2C9, sequence (P11712 whole entry): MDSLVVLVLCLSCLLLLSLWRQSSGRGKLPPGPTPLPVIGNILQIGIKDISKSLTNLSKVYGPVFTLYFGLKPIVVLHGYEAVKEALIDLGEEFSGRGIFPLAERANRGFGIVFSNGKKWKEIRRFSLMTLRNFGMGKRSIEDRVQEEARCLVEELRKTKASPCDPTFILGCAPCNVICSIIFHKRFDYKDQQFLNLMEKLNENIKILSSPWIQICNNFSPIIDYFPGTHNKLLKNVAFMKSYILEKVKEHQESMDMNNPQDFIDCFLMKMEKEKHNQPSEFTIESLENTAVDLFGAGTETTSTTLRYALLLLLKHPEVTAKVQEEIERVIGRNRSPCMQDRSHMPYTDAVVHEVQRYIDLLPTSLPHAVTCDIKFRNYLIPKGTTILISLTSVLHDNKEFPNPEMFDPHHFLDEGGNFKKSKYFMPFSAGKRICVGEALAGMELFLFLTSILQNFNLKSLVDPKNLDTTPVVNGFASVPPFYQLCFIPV
How it was run: as §1

CYP2D6 = CYP2D6 (Homo sapiens, UniProt P10635); test: as above
CYP2D6, sequence (P10635 whole entry): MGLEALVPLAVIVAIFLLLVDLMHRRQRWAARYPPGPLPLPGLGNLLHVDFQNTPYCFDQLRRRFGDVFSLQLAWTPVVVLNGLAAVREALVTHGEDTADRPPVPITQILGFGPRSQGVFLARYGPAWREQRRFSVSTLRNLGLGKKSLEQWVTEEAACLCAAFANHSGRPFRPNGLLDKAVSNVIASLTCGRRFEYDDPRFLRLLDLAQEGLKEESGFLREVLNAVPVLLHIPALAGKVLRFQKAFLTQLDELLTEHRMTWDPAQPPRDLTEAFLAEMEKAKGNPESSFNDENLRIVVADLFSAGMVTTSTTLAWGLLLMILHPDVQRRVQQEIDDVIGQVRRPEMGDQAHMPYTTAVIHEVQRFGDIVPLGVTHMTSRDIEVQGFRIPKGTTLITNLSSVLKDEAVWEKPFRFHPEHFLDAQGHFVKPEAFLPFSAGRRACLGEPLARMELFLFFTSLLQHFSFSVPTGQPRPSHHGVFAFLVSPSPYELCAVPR
How it was run: as §1

CYP3A4 = CYP3A4 (Homo sapiens, UniProt P08684); test: as above
CYP3A4, sequence (P08684 whole entry): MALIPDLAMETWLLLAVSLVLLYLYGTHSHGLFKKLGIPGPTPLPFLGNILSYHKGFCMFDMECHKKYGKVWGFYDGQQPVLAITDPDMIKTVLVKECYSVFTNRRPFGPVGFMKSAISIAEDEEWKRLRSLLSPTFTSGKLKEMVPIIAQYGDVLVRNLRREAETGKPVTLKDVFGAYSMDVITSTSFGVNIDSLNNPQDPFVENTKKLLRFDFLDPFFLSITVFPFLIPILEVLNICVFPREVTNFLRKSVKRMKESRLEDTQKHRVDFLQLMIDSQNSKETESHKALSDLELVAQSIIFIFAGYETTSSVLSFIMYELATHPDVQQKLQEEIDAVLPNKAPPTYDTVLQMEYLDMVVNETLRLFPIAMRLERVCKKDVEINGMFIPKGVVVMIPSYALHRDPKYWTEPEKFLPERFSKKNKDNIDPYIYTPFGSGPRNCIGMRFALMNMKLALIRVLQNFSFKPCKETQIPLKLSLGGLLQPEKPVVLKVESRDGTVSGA
How it was run: as §1

[5] = FaSSGF, 37 °C, fassgf or other biorelevant
[6] = phosphate buffered saline pH 7.4, 37 °C, pH 7.4, aqueous buffer
[7] = liver microsomes, human liver microsomes, average of n = 2 replicates, < 7 means < 15% loss over 60 min
[8] = CYP3A4 (midaz) IC50, human liver microsomes, CYP3A4 (midaz), highest concentration tested 20 µM
[9] = CYP3A4 (test) IC50, human liver microsomes, CYP3A4 (test), highest concentration tested 20 µM
[10] = human, microsomes, pH 7.4, CYP3A4 (test) % inhibition at max conc
[11] = human liver microsomes, at max conc, nmi = no measurable inhibition

Compound | solubility at 1 h [1, 5] | solubility ([1]; FaSSIF-V2, 37 °C, fassif) | solubility ([1]; FeSSIF-V2, 37 °C, fessif) | solubility [1, 6] | solubility [2] [µg/mL] | An (absorption number) [2] | SLAD [2] [mg] | Permeability classification [2] | Predicted human Peff [2] | fraction unbound at […], 500 ng/mL ([3]; isolated protein, pH 7.4) | microsomal CLint at 1 µM [4, 7] [µL/min/mg] | IC50 (CYP1A2) [µM] | IC50 (CYP2C19) [µM] | CYP2C19 % inhibition at max conc (CYP2C19; microsomes) | IC50 (CYP2C9) [µM] | CYP2C9 % inhibition at max conc (CYP2C9; microsomes) | IC50 (CYP2D6) [µM] | IC50 (CYP3A4; [8]) [µM] | IC50 (CYP3A4; [9]) [µM] | CYP3A4 (midaz) % inhibition at max conc (CYP3A4; microsomes) | further results
CO[C@H]1O[C@@H]2O[C@@]3(C)CC[C@H]4[C@H](C)CC[C@@H]([C@H]1C)[C@@]24OO3 [Artemether] | 95 µg/mL and 320 µM | 166 µg/mL and 556 µM | 1040 µg/mL and 3480 µM | 109 µg/mL and 365 µM | 166 (≈ 556 µM) | 4.7 | 388 | High (> 85% absorption (high)) | 3.9 10^−4 cm/s | 0.46 ± 0.039 | 163 | > 20 | > 20 | nmi | > 20 | nmi | > 20 | > 20 | > 20 | – | CYP1A2 % inhibition at max conc (CYP1A2; microsomes): nmi; CYP2D6 % inhibition at max conc (CYP2D6; microsomes): nmi; inhibition at 20 µM (CYP3A4; human, microsomes, pH 7.4, CYP3A4 (midaz) % inhibition at max conc): 39%; inhibition at 20 µM (CYP3A4; [10]): 37%
C[C@H]1[C@H](OC(=O)CCC(=O)O)O[C@@H]2O[C@@]3(C)CC[C@H]4[C@H](C)CC[C@@H]1[C@@]24OO3 [Artesunate] | 835 µM (≈ 321 µg/mL) | 1690 µg/mL and 4390 µM | 1720 µg/mL and 4490 µM | 1680 µg/mL and 4370 µM | 1690 (≈ 4400 µM) | 1.0 | 845 | Intermediate (50–84% absorption (intermediate)) | 0.66 10^−4 cm/s | – | – | 20 | > 20 | nmi | > 20 | nmi | > 20 | – | – | nmi | solubility ([1]; 37 °C, fassgf or other biorelevant): 321 µg/mL (≈ 835 µM); fraction unbound at […], 500 ng/mL ([3]; Albumax medium, pH 7.4, instability evident, estimate only): 0.14 ± 0.007; microsomal CLint at 1 µM ([4]; microsomes): 146 µL/min/mg; Ki (CYP1A2): 12 µM; CYP2D6 % inhibition at max conc (CYP2D6; microsomes): nmi; IC50 (CYP3A4; human, microsomes, pH 7.4, CYP3A4 (test) IC50): > 20 µM; CYP3A4 (test) % inhibition at max conc (CYP3A4; microsomes): nmi
CC(C)NC(=N)NC(=N)Nc1ccc(Cl)c(Cl)c1 [Chlorproguanil] | > 2000 µg/mL and > 6940 µM | 1100 µg/mL and 3810 µM | 1670 µg/mL and 5780 µM | 1420 µg/mL and 4930 µM | 1100 (≈ 3820 µM) | 1.8 | 998 | High (> 85% absorption (high)) | 1.5 10^−4 cm/s | 0.5 ± 0.02 | < 7 | > 20 | > 20 | – | > 20 | nmi | 1.4 | > 20 | > 20 | nmi | solubility ([1]; FaSSGF, FaSSIF-V2, FeSSIF-V2 and PBS pH 7.4, 37 °C, pH 7.4, aqueous buffer): > 2000 µg/mL; CYP1A2 % inhibition at max conc (CYP1A2; microsomes): nmi; inhibition at 20 µM (CYP2C19; human, microsomes, pH 7.4): 39%; Ki (CYP2D6): 0.87 µM; inhibition at 20 µM (CYP3A4; [10]): 41%
C[C@H]1[C@@H](O)O[C@@H]2O[C@@]3(C)CC[C@H]4[C@H](C)CC[C@@H]1[C@@]24OO3 [Dihydroartemisinin] | 140 µg/mL and 492 µM | – | – | – | – | 5.2 | 413 | High (> 85% absorption (high)) | 4.4 10^−4 cm/s | – | 16.6 | 11 | > 20 | nmi | > 20 | nmi | > 20 | > 20 | > 20 | nmi | fraction unbound at […], 500 ng/mL ([3]; isolated protein, pH 7.4, instability evident, estimate only): 0.34 ± 0.018; Ki (CYP1A2): 6.2 µM; CYP2D6 % inhibition at max conc (CYP2D6; microsomes): nmi; CYP3A4 (test) % inhibition at max conc (CYP3A4; microsomes): nmi
CCCCN(CCCC)CCC(O)c1cc2c(Cl)cc(Cl)cc2c2cc(C(F)(F)F)ccc12 (stereo not shown) [Halofantrine] | 12.7 µg/mL and 25.4 µM | 69.9 µg/mL and 140 µM | 739 µg/mL and 1480 µM | < 0.05 µg/mL and < 0.1 µM | 69.9 (≈ 140 µM) | 13 | 466 | High (> 85% absorption (high)) | 11 10^−4 cm/s | – | – | > 20 | > 20 | – | > 20 | – | 0.27 | – | – | – | fraction unbound at […], 500 ng/mL ([3]; Albumax medium, pH 7.4): 0.008 ± 0.001; microsomal CLint at 1 µM ([4]; microsomes): 26.9 µL/min/mg; CYP1A2 % inhibition at max conc (CYP1A2; [11]): nmi; CYP2C19 % inhibition at max conc (CYP2C19; [11]): nmi; CYP2C9 % inhibition at max conc (CYP2C9; [11]): nmi; Ki (CYP2D6): 0.19 µM; inhibition at 20 µM (CYP3A4; human, microsomes, pH 7.4, CYP3A4 (midaz) % inhibition at max conc, human liver microsomes, CYP3A4 (midaz), at max conc, nmi = no measurable inhibition): 24%; inhibition at 20 µM (CYP3A4; human, microsomes, pH 7.4, CYP3A4 (test) % inhibition at max conc, human liver microsomes, CYP3A4 (test), at max conc, nmi = no measurable inhibition): 19%
C[C@H]1Cc2c([nH]c3cc(Cl)c(F)cc23)[C@@]2(N1)C(=O)Nc1ccc(Cl)cc12 [KAE609] | 1540 µg/mL and 3940 µM | 111 µg/mL and 284 µM | 1240 µg/mL and 3180 µM | 30.4 µg/mL and 77.9 µM | 111 (≈ 284 µM) | 13 | 738 | High (> 85% absorption (high)) | 11 10^−4 cm/s | 0.044 ± 0.004 | 24.1 | 4.5 | < 0.25 | – | 5.5 | – | 5.9 | > 20 | > 20 | nmi | Ki (CYP1A2): 2.7 µM; Ki (CYP2C19): < 0.15 µM; Ki (CYP2C9): 4 µM; Ki (CYP2D6): 3.7 µM; inhibition at 20 µM (CYP3A4; [10]): 30%
CS(=O)(=O)c1ccc(-c2cnc(N)c(-c3ccc(C(F)(F)F)nc3)c2)cc1 [MMV048] | 1200 µg/mL and 3040 µM | 6.73 µg/mL and 17.1 µM | 7.47 µg/mL and 19 µM | 4.52 µg/mL and 11.5 µM | 6.7 (≈ 17 µM) | 4.5 | 15 | High (> 85% absorption (high)) | 3.8 10^−4 cm/s | 0.46 ± 0.022 | < 7 | > 20 | > 20 | nmi | > 20 | nmi | > 20 | – | > 20 | – | CYP1A2 % inhibition at max conc (CYP1A2; microsomes): nmi; inhibition at 20 µM (CYP2D6; human, microsomes, pH 7.4): 16%; CYP3A4 (test) % inhibition at max conc (CYP3A4; microsomes): nmi
